Measurements: patent US20080064667A1, “OXAZOLE DERIVATIVES OF TETRACYCLINES” (Wyeth, priority 2003, published 2008)
Converted amounts (≈) assume the structure as drawn.

Legend:
Assay in all cases: MIC, broth microdilution (NCCLS)
Type in all cases: cell-based
[1] = tested on: C. albicans GC3066 ATCC (Control); settings: Candida albicans, Mueller-Hinton II broth, 18-22 hours at 35° C.
Method: (§1) Methods for in Vitro Antibacterial Evaluation
(§2) The Minimum Inhibitory Concentration (MIC)
(§3) Antimicrobial susceptibility testing. The in vitro activities of the antibiotics are determined by the broth microdilution method as recommended by the National Committee for Clinical Laboratory Standards (NCCLS) (1). Mueller-Hinton II broth (MHBII)(BBL Cockeysville, Md.) is the medium employed in the testing procedures. Microtiter plates containing serial dilutions of each antimicrobial agent are inoculated with each organism to yield the appropriate density (10^5 CFU/ml) in a 100 μl final volume. The plates are incubated for 18-22 hours at 35° C. in ambient air.
(§4) 1. NCCLS. 2000. Methods for Dilution Antimicrobial Susceptibility Tests for Bacteria That Grow Aerobically; Approved Standards: M7-A5, vol. 20. National Committe for Clinical Laboratory Standards, Wayne, Pa.

[2] = tested on: S. aureus GC1131 (Clinical); settings: Staphylococcus aureus, Mueller-Hinton II broth, 18-22 hours at 35° C.
Method: as §1, §2, §3, §4

[3] = tested on: E. faecalis GC2242 (Van-resistant); settings: Enterococcus faecalis, Mueller-Hinton II broth, 18-22 hours at 35° C.
Method: as §1, §2, §3, §4

[4] = tested on: S. aureus GC1079 (tet(K)); settings: Staphylococcus aureus, Mueller-Hinton II broth, 18-22 hours at 35° C.
Method: as §1, §2, §3, §4

[5] = tested on: S. pneumoniae* GC1894 (Clinical); settings: Streptococcus pneumoniae, Mueller-Hinton II broth, 18-22 hours at 35° C.
Method: as §1, §2, §3, §4

[6] = tested on: H. influenzae<> GC6896 (ATCC Control); settings: Haemophilus influenzae, Mueller-Hinton II broth, 18-22 hours at 35° C.
Method: as §1, §2, §3, §4

[7] = tested on: S. pneumoniae* GC4465 (Clinical); settings: Streptococcus pneumoniae, Mueller-Hinton II broth, 18-22 hours at 35° C.
Method: as §1, §2, §3, §4

[8] = tested on: S. aureus GC6466 (tet(M)); settings: Staphylococcus aureus, Mueller-Hinton II broth, 18-22 hours at 35° C.
Method: as §1, §2, §3, §4

[9] = tested on: S. aureus GC2216 (ATCC Control); settings: Staphylococcus aureus, Mueller-Hinton II broth, 18-22 hours at 35° C.
Method: as §1, §2, §3, §4

[10] = tested on: E. coli GC2203 (ATCC Control); settings: Escherichia coli, Mueller-Hinton II broth, 18-22 hours at 35° C.
Method: as §1, §2, §3, §4

[11] = tested on: E. coli GC4559 (parent GC4560); settings: Escherichia coli, Mueller-Hinton II broth, 18-22 hours at 35° C.
Method: as §1, §2, §3, §4

[12] = tested on: S. pyogenes* GC4563 (Clinical); settings: Streptococcus pyogenes, Mueller-Hinton II broth, 18-22 hours at 35° C.
Method: as §1, §2, §3, §4

E. coli GC2270 (tet(M)) = settings: Escherichia coli
Method: as §1, §2, §3, §4

[13] = tested on: M. catarrhalis* GC6907 (Clinical); settings: Moraxella catarrhalis, Mueller-Hinton II broth, 18-22 hours at 35° C.
Method: as §1, §2, §3, §4

[14] = tested on: E. coli GC4560 (IMP mutant); settings: Escherichia coli
Method: as §1, §2, §3, §4

[15] = tested on: E. faecalis GC4555 (ATCC Control); settings: Enterococcus faecalis, Mueller-Hinton II broth, 18-22 hours at 35° C.
Method: as §1, §2, §3, §4

E. coli GC1073 (tet(B)) = settings: Escherichia coli
Method: as §1, §2, §3, §4

[16] = tested on: S. aureus GC4536 (Smith MP -In Vivo); settings: Staphylococcus aureus, Mueller-Hinton II broth, 18-22 hours at 35° C.
Method: as §1, §2, §3, §4

| Structure (SMILES) | MIC [1] [µg/mL] | MIC [2] [µg/mL] | MIC [3] [µg/mL] | MIC [4] [µg/mL] | MIC [5] [µg/mL] | MIC [6] [µg/mL] | MIC [7] [µg/mL] | MIC [8] [µg/mL] | MIC [9] [µg/mL] | MIC [10] [µg/mL] | MIC [11] [µg/mL] | MIC [12] [µg/mL] | MIC (E. coli GC2270 (tet(M))) [µg/mL] | MIC [13] [µg/mL] | MIC [14] [µg/mL] | MIC [15] [µg/mL] | MIC (E. coli GC1073 (tet(B))) [µg/mL] | MIC [16] [µg/mL] |
| --- | --- | --- | --- | --- | --- | --- | --- | --- | --- | --- | --- | --- | --- | --- | --- | --- | --- | --- |
| CCOc1cc(OCC)c(-c2nc3cc(N(C)C)c4c(c3o2)C(=O)C2=C(O)[C@]3(O)C(=O)C(C(N)=O)=C(O)[C@@H](N(C)C)[C@@H]3C[C@@H]2C4)cc1OCC [Example 16, (6aR,7aS,8S,11aS)-5,8-bis(dimethylamino)-9,11a,12-trihydroxy-11,13-dioxo-2-(2,4,5-triethoxyphenyl)-6,6a,7,7a,8,11,11a,13-octahydrotetraceno[2,1-d][1,3]oxazole-10-carboxamide] | > 64 | 16 (≈ 23.2 µM) | 16 (≈ 23.2 µM) | 16 (≈ 23.2 µM) | > 64 | > 64 | > 64 | 16 (≈ 23.2 µM) | 16 (≈ 23.2 µM) | > 64 | > 64 | 64 (≈ 92.7 µM) | > 64 | > 64 | 16 (≈ 23.2 µM) | 16 (≈ 23.2 µM) | > 64 | 16 (≈ 23.2 µM) |
| CN(C)c1cc2nc(-c3ccc(C#N)cc3)oc2c2c1C[C@H]1C[C@H]3[C@H](N(C)C)C(O)=C(C(N)=O)C(=O)[C@@]3(O)C(O)=C1C2=O [Example 7, (6aR,7aS,8S,11aS)-2-(4-cyanophenyl)-5,8-bis(dimethylamino)-9,11a,12-trihydroxy-11,13-dioxo-6,6a,7,7a,8,11,11a,13-octahydrotetraceno[2,1-d][1,3]oxazole-10-carboxamide] | > 64 | 8 (≈ 13.7 µM) | 8 (≈ 13.7 µM) | 8 (≈ 13.7 µM) | 16 (≈ 27.4 µM) | 64 (≈ 110 µM) | 8 (≈ 13.7 µM) | 8 (≈ 13.7 µM) | 8 (≈ 13.7 µM) | > 64 | > 64 | 8 (≈ 13.7 µM) | > 64 | 4 (≈ 6.85 µM) | 8 (≈ 13.7 µM) | 8 (≈ 13.7 µM) | > 64 | 8 (≈ 13.7 µM) |
| CN(C)c1cc2nc(-c3ccc(C(C)(C)C)cc3)oc2c2c1C[C@H]1C[C@H]3[C@H](N(C)C)C(O)=C(C(N)=O)C(=O)[C@@]3(O)C(O)=C1C2=O [Example 31, (6aR,7aS,8S,11aS)-2-(4-tert-butylphenyl)-5,8-bis(dimethylamino)-9,11a,12-trihydroxy-11,13-dioxo-6,6a,7,7a,8,11,11a,13-octahydrotetraceno[2,1-d][1,3]oxazole-10-carboxamide] | > 64 | 8 (≈ 13 µM) | 8 (≈ 13 µM) | 8 (≈ 13 µM) | 8 (≈ 13 µM) | > 64 | 8 (≈ 13 µM) | 4 (≈ 6.51 µM) | 8 (≈ 13 µM) | > 64 | > 64 | 8 (≈ 13 µM) | > 64 | 16 (≈ 26 µM) | 4 (≈ 6.51 µM) | 8 (≈ 13 µM) | > 64 | 8 (≈ 13 µM) |
| CN(C)c1cc2nc(/C=C/c3ccccc3)oc2c2c1C[C@H]1C[C@H]3[C@H](N(C)C)C(O)=C(C(N)=O)C(=O)[C@@]3(O)C(O)=C1C2=O [Example 25, (6aR,7aS,8S,11aS)-5,8-bis(dimethylamino)-9,1a,12-trihydroxy-11,13-dioxo-2-[(E)-2-phenylethenyl]-6,6a,7,7a,8,11,11a,13-octahydrotetraceno[2,1-d][1,3]oxazole-10-carboxamide] | > 64 | 8 (≈ 13.7 µM) | 4 (≈ 6.84 µM) | 4 (≈ 6.84 µM) | 32 (≈ 54.7 µM) | > 64 | 32 (≈ 54.7 µM) | 4 (≈ 6.84 µM) | 4 (≈ 6.84 µM) | > 64 | > 64 | 16 (≈ 27.4 µM) | > 64 | 16 (≈ 27.4 µM) | 8 (≈ 13.7 µM) | 8 (≈ 13.7 µM) | > 64 | 8 (≈ 13.7 µM) |
| CN(C)c1cc2nc(/C=C/c3ccco3)oc2c2c1C[C@H]1C[C@H]3[C@H](N(C)C)C(O)=C(C(N)=O)C(=O)[C@@]3(O)C(O)=C1C2=O [Example 22, (6aR,7aS,8S,11aS)-5,8-bis(dimethylamino)-2-[(E)-2-(2-furyl)ethenyl]-9,11a,12-trihydroxy-11,13-dioxo-6,6a,7,7a,8,11,11a,13-octahydrotetraceno[2,1-d][1,3]oxazole-10-carboxamide] | > 64 | 8 (≈ 13.9 µM) | 8 (≈ 13.9 µM) | 8 (≈ 13.9 µM) | 32 (≈ 55.7 µM) | > 64 | 32 (≈ 55.7 µM) | 8 (≈ 13.9 µM) | 8 (≈ 13.9 µM) | > 64 | > 64 | 16 (≈ 27.8 µM) | > 64 | 16 (≈ 27.8 µM) | 8 (≈ 13.9 µM) | 8 (≈ 13.9 µM) | > 64 | 8 (≈ 13.9 µM) |
| CN(C)c1cc2nc(-c3nccs3)oc2c2c1C[C@H]1C[C@H]3[C@H](N(C)C)C(O)=C(C(N)=O)C(=O)[C@@]3(O)C(O)=C1C2=O [Example 24, (6aR,7aS,8S,11aS)-5,8-bis(dimethylamino)-9,11a,12-trihydroxy-11,13-dioxo-2-(1,3-thiazol-2-yl)-6,6a,7,7a,8,11,11a,13-octahydrotetraceno[2,1-d][1,3]oxazole-10-carboxamide] | > 64 | 32 (≈ 56.6 µM) | 32 (≈ 56.6 µM) | 32 (≈ 56.6 µM) | 64 (≈ 113 µM) | > 64 | 64 (≈ 113 µM) | 32 (≈ 56.6 µM) | 64 (≈ 113 µM) | > 64 | > 64 | 32 (≈ 56.6 µM) | > 64 | > 64 | 32 (≈ 56.6 µM) | 32 (≈ 56.6 µM) | > 64 | 32 (≈ 56.6 µM) |
| CN(C)c1cc2nc(-c3ccncc3)oc2c2c1C[C@H]1C[C@H]3[C@H](N(C)C)C(O)=C(C(N)=O)C(=O)[C@@]3(O)C(O)=C1C2=O [Example 33, (6aR,7aS,8S,11aS)-5,8-bis(dimethylamino)-9,11a,12-trihydroxy-11,13-dioxo-2-pyridin-4-yl-6,6a,7,7a,8,11,11a,13-octahydrotetraceno[2,1-d][1,3]oxazole-10-carboxamide] | > 64 | 16 (≈ 28.6 µM) | 16 (≈ 28.6 µM) | 16 (≈ 28.6 µM) | 32 (≈ 57.2 µM) | 32 (≈ 57.2 µM) | 16 (≈ 28.6 µM) | 32 (≈ 57.2 µM) | 16 (≈ 28.6 µM) | 64 (≈ 114 µM) | > 64 | 8 (≈ 14.3 µM) | > 64 | 8 (≈ 14.3 µM) | 16 (≈ 28.6 µM) | 16 (≈ 28.6 µM) | > 64 | 16 (≈ 28.6 µM) |
